Measurements as given in US10004701B2, “Methods and compositions for treating infection” (UNIVERSITY OF ROCHESTER, priority 2012, dated 2018).
Structures can show the parent of a compound that is named as a salt. Where two headings read alike, the source gives them in different places.

Key:
Experiment in all cases: AK assay 384-well format, Prestwick library screening
[1] = tested on: E. faecium; format: cell-based, Enterococcus faecium; conditions: for fold induction at 50 µM: Enterococcus faecium, 3 h
[2] = tested on: K. pneumoniae; format: cell-based, Klebsiella pneumoniae; conditions: for fold induction at 50 µM: Klebsiella pneumoniae, 3 h
[3] = tested on: A. baumannii strain 98-37-09; format: cell-based, Acinetobacter baumannii; conditions: for fold induction at 50 µM: Acinetobacter baumannii, 983709, 3 h
[4] = tested on: E. cloacae; format: cell-based, Enterobacter cloacae; conditions: for fold induction at 50 µM: Enterobacter cloacae, 3 h
[5] = tested on: E. coli; format: cell-based, Escherichia coli; conditions: 50 μM final drug concentration; for fold induction at 50 µM: Escherichia coli, 3 h
[6] = tested on: P. aeruginosa; format: cell-based, Pseudomonas aeruginosa; conditions: for fold induction at 50 µM: Pseudomonas aeruginosa, 3 h
[7] = tested on: S. aureus strain USA300-0114; format: cell-based, Staphylococcus aureus; conditions: for fold induction at 50 µM: Staphylococcus aureus, USA300, 3 h
[8] = 50 μM final drug concentration, 384-well format, cutoff for positive-scoring molecules 3-fold increase, read-out: AK-based Prestwick Library Screening Results, E. faecium (increase in extracellular AK activity)
[9] = 50 μM final drug concentration, 384-well format, cutoff for positive-scoring molecules 3-fold increase, read-out: AK-based Prestwick Library Screening Results, K. pneumoniae (increase in extracellular AK activity)
[10] = 50 μM final drug concentration, 384-well format, cutoff for positive-scoring molecules 3-fold increase, read-out: AK-based Prestwick Library Screening Results, A. baumannii (increase in extracellular AK activity)
[11] = 50 μM final drug concentration, 384-well format, cutoff for positive-scoring molecules 3-fold increase, read-out: AK-based Prestwick Library Screening Results, E. cloacae (increase in extracellular AK activity)
[12] = 384-well format, cutoff for positive-scoring molecules 3-fold increase, read-out: AK-based Prestwick Library Screening Results, E. coli (increase in extracellular AK activity)
[13] = 50 μM final drug concentration, 384-well format, cutoff for positive-scoring molecules 3-fold increase, read-out: AK-based Prestwick Library Screening Results, P. aeruginosa (increase in extracellular AK activity)
[14] = 50 μM final drug concentration, 384-well format, cutoff for positive-scoring molecules 3-fold increase, read-out: AK-based Prestwick Library Screening Results, S. aureus (increase in extracellular AK activity)
[15] = 50 μM final drug concentration, planktonic, cutoff for positive-scoring molecules 3-fold increase
[16] = 50 μM final drug concentration, planktonic, cutoff for positive-scoring molecules 3-fold increase, read-out: AK-based Prestwick Library Screening Results, E. faecium (fold increase in extracellular AK activity)
[17] = 50 μM final drug concentration, planktonic, cutoff for positive-scoring molecules 3-fold increase, read-out: AK-based Prestwick Library Screening Results, K. pneumoniae (fold increase in extracellular AK activity)
[18] = 50 μM final drug concentration, planktonic, cutoff for positive-scoring molecules 3-fold increase, read-out: AK-based Prestwick Library Screening Results, A. baumannii (fold increase in extracellular AK activity)
[19] = 50 μM final drug concentration, planktonic, cutoff for positive-scoring molecules 3-fold increase, read-out: AK-based Prestwick Library Screening Results, E. cloacae (fold increase in extracellular AK activity)
[20] = planktonic, cutoff for positive-scoring molecules 3-fold increase, read-out: AK-based Prestwick Library Screening Results, E. coli (fold increase in extracellular AK activity)
[21] = 50 μM final drug concentration, planktonic, cutoff for positive-scoring molecules 3-fold increase, read-out: AK-based Prestwick Library Screening Results, P. aeruginosa (fold increase in extracellular AK activity)
[22] = 50 μM final drug concentration, planktonic, cutoff for positive-scoring molecules 3-fold increase, read-out: AK-based Prestwick Library Screening Results, S. aureus (fold increase in extracellular AK activity)

SMILES: CCN1C[C@]2(COC)CC[C@H](O)[C@@]34C5C[C@@H]6[C@@H](OC)C[C@](O)(C(CC23)C14)C5[C@H]6OC(C)=O (stereo partly shown) [Condelphine]
- fold induction at 50 µM ([1]; planktonic E. faecium, 50 μM final drug concentration, […], read-out: AK-based Prestwick library screening result, E. faecium (fold increase in extracellular AK activity)): 1.1
- fold induction at 50 µM ([2]; planktonic K. pneumoniae, 50 μM final drug concentration, […], read-out: AK-based Prestwick library screening result, K. pneumoniae (fold increase in extracellular AK activity)): 1
- fold induction at 50 µM ([3]; planktonic A. baumannii, 50 μM final drug concentration, […], read-out: AK-based Prestwick library screening result, A. baumannii (fold increase in extracellular AK activity)): 1.1
- fold induction at 50 µM ([4]; planktonic E. cloacae, 50 μM final drug concentration, […], read-out: AK-based Prestwick library screening result, E. cloacae (fold increase in extracellular AK activity)): 1.2
- fold induction at 50 µM ([5]; planktonic E. coli, […], read-out: AK-based Prestwick library screening result, E. coli (fold increase in extracellular AK activity)): 1.1
- fold induction at 50 µM ([6]; planktonic P. aeruginosa, 50 μM final drug concentration, […], read-out: AK-based Prestwick library screening result, P. aeruginosa (fold increase in extracellular AK activity)): 1
- fold induction at 50 µM ([7]; planktonic S. aureus, 50 μM final drug concentration, […], read-out: AK-based Prestwick library screening result, S. aureus (fold increase in extracellular AK activity)): 1.1

SMILES: NC(N)=Nc1nc(CSCCC(N)=NS(N)(=O)=O)cs1 [Famotidine]
- fold induction at 50 µM [1, 8]: 0.8
- fold induction at 50 µM [2, 9]: 0.8
- fold induction at 50 µM [3, 10]: 0.8
- fold induction at 50 µM [4, 11]: 1
- fold induction at 50 µM [5, 12]: 0.9
- fold induction at 50 µM [6, 13]: 0.8
- fold induction at 50 µM [7, 14]: 0.5

SMILES: CNC(C)CCC=C(C)C.CNC(C)CCC=C(C)C.O=C(O)[C@@H](O)[C@H](O)[C@H](O)[C@@H](O)C(=O)O [Isometheptene mutate]
- AK-based Prestwick library screening result, E. faecium (fold increase in extracellular AK activity) [1]: 1.0
- AK-based Prestwick library screening result, K. pneumoniae (fold increase in extracellular AK activity) [2]: 1.1
- AK-based Prestwick library screening result, A. baumannii (fold increase in extracellular AK activity) [3]: 1.5
- AK-based Prestwick library screening result, E. cloacae (fold increase in extracellular AK activity) [4]: 1.2
- AK-based Prestwick library screening result, E. coli (fold increase in extracellular AK activity) ([5]; planktonic E. coli, […]): 1.2
- AK-based Prestwick library screening result, P. aeruginosa (fold increase in extracellular AK activity) [6]: 1.1
- AK-based Prestwick library screening result, S. aureus (fold increase in extracellular AK activity) [7]: 1.2

SMILES: O=C(O)/C=C/c1ccc(Cn2ccnc2)cc1 [Ozagrel hydrochloride]
- fold induction at 50 µM ([1]; planktonic E. faecium, 50 μM final drug concentration, positive cutoff 3-fold increase, read-out: AK-based Prestwick library screening result, E. faecium (fold increase in extracellular AK activity)): 0.9
- fold induction at 50 µM ([2]; planktonic K. pneumoniae, 50 μM final drug concentration, positive cutoff 3-fold increase, read-out: AK-based Prestwick library screening result, K. pneumoniae (fold increase in extracellular AK activity)): 0.5
- fold induction at 50 µM ([3]; planktonic A. baumannii, 50 μM final drug concentration, positive cutoff 3-fold increase, read-out: AK-based Prestwick library screening result, A. baumannii (fold increase in extracellular AK activity)): 0.7
- fold induction at 50 µM ([4]; planktonic E. cloacae, 50 μM final drug concentration, positive cutoff 3-fold increase, read-out: AK-based Prestwick library screening result, E. cloacae (fold increase in extracellular AK activity)): 0.9
- fold induction at 50 µM ([5]; planktonic E. coli, positive cutoff 3-fold increase, read-out: AK-based Prestwick library screening result, E. coli (fold increase in extracellular AK activity)): 0.6
- fold induction at 50 µM ([6]; planktonic P. aeruginosa, 50 μM final drug concentration, positive cutoff 3-fold increase, read-out: AK-based Prestwick library screening result, P. aeruginosa (fold increase in extracellular AK activity)): 0.6
- fold induction at 50 µM ([7]; planktonic S. aureus, 50 μM final drug concentration, positive cutoff 3-fold increase, read-out: AK-based Prestwick library screening result, S. aureus (fold increase in extracellular AK activity)): 0.5

SMILES: CC1=C(/C=C/C(C)=C/C=C/C(C)=C\C(=O)O)C(C)(C)CCC1 [Isotretinoin]
- fold induction at 50 µM [1, 8]: 1
- fold induction at 50 µM [2, 9]: 0.6
- fold induction at 50 µM [3, 10]: 0.7
- fold induction at 50 µM [4, 11]: 0.9
- fold induction at 50 µM [5, 12]: 0.7
- fold induction at 50 µM [6, 13]: 0.8
- fold induction at 50 µM [7, 14]: 0.6

SMILES: C=CC[N@@+]12CC[C@@]34c5ccccc5N5/C=C6/[C@H]7C[C@H]8[C@@]9(CC[N@@+]8(CC=C)C/C7=C/CO)c7ccccc7N(/C=C(/[C@@H](C[C@@H]31)/C(=C\CO)C2)[C@H]54)[C@@H]69.[Cl-].[Cl-] [Alcuronium chloride]
- AK-based Prestwick library screening result, E. faecium (fold increase in extracellular AK activity) ([1]; planktonic E. faecium, 50 μM final drug concentration, […]): 1.0
- AK-based Prestwick library screening result, K. pneumoniae (fold increase in extracellular AK activity) ([2]; planktonic K. pneumoniae, 50 μM final drug concentration, […]): 1.0
- AK-based Prestwick library screening result, A. baumannii (fold increase in extracellular AK activity) ([3]; planktonic A. baumannii, 50 μM final drug concentration, […]): 1.4
- AK-based Prestwick library screening result, E. cloacae (fold increase in extracellular AK activity) ([4]; planktonic E. cloacae, 50 μM final drug concentration, […]): 2.2
- AK-based Prestwick library screening result, E. coli (fold increase in extracellular AK activity) ([5]; planktonic E. coli, […]): 1.4
- AK-based Prestwick library screening result, P. aeruginosa (fold increase in extracellular AK activity) ([6]; planktonic P. aeruginosa, 50 μM final drug concentration, […]): 1.0
- AK-based Prestwick library screening result, S. aureus (fold increase in extracellular AK activity) ([7]; planktonic S. aureus, 50 μM final drug concentration, […]): 1.2

SMILES: Cc1ncc(C[n+]2csc(CCO)c2C)c(N)n1 [Thiamine hydrochloride]
- fold induction at 50 µM ([1]; 50 μM final drug concentration, planktonic, cutoff for positive 3-fold increase, read-out: AK-based Prestwick Library Screening Results, E. faecium (fold increase in extracellular AK activity)): 1
- fold induction at 50 µM ([2]; 50 μM final drug concentration, planktonic, cutoff for positive 3-fold increase, read-out: AK-based Prestwick Library Screening Results, K. pneumoniae (fold increase in extracellular AK activity)): 1.4
- fold induction at 50 µM ([3]; 50 μM final drug concentration, planktonic, cutoff for positive 3-fold increase, read-out: AK-based Prestwick Library Screening Results, A. baumannii (fold increase in extracellular AK activity)): 1.3
- fold induction at 50 µM ([4]; 50 μM final drug concentration, planktonic, cutoff for positive 3-fold increase, read-out: AK-based Prestwick Library Screening Results, E. cloacae (fold increase in extracellular AK activity)): 1.3
- fold induction at 50 µM ([5]; planktonic, cutoff for positive 3-fold increase, read-out: AK-based Prestwick Library Screening Results, E. coli (fold increase in extracellular AK activity)): 1.4
- fold induction at 50 µM ([6]; 50 μM final drug concentration, planktonic, cutoff for positive 3-fold increase, read-out: AK-based Prestwick Library Screening Results, P. aeruginosa (fold increase in extracellular AK activity)): 1.3
- fold induction at 50 µM ([7]; 50 μM final drug concentration, planktonic, cutoff for positive 3-fold increase, read-out: AK-based Prestwick Library Screening Results, S. aureus (fold increase in extracellular AK activity)): 1.1

SMILES: CN(N=O)C(=O)N[C@H]1C(O)O[C@H](CO)[C@@H](O)[C@@H]1O (mixture of isomers) [Streptozotocin]
- AK-based Prestwick Library Screening Results, E. faecium (fold increase in extracellular AK activity) [1, 15]: 2.6
- AK-based Prestwick Library Screening Results, K. pneumoniae (fold increase in extracellular AK activity) [2, 15]: 1.4
- AK-based Prestwick Library Screening Results, A. baumannii (fold increase in extracellular AK activity) [3, 15]: 0.7
- AK-based Prestwick Library Screening Results, E. cloacae (fold increase in extracellular AK activity) [4, 15]: 0.7
- AK-based Prestwick Library Screening Results, E. coli (fold increase in extracellular AK activity) ([5]; planktonic, cutoff for positive-scoring molecules 3-fold increase): 0.7
- AK-based Prestwick Library Screening Results, P. aeruginosa (fold increase in extracellular AK activity) [6, 15]: 0.7
- AK-based Prestwick Library Screening Results, S. aureus (fold increase in extracellular AK activity) [7, 15]: 1.2

SMILES: COc1c2ccoc2nc2c(OC)c(OCC(O)C(C)(C)O)ccc12 (stereo not shown) [Evoxine]
- fold induction at 50 µM [1, 16]: 0.8
- fold induction at 50 µM [2, 17]: 0.7
- fold induction at 50 µM [3, 18]: 0.7
- fold induction at 50 µM [4, 19]: 1.1
- fold induction at 50 µM [5, 20]: 0.7
- fold induction at 50 µM [6, 21]: 0.8
- fold induction at 50 µM [7, 22]: 0.6

SMILES: C[N+]1(C)[C@@H]2CC[C@H]1C[C@@H](OC(=O)C(CO)c1ccccc1)C2 (stereo partly shown) [Methylatropine nitrate]
- fold induction at 50 µM [1, 16]: 1
- fold induction at 50 µM [2, 17]: 0.6
- fold induction at 50 µM [3, 18]: 0.7
- fold induction at 50 µM [4, 19]: 0.8
- fold induction at 50 µM [5, 20]: 0.7
- fold induction at 50 µM [6, 21]: 0.7
- fold induction at 50 µM [7, 22]: 0.6
